Laboratory results from US12065442B2, “Tropomyosin receptor kinase (TRK) degradation compounds and methods of use” (Cullgen (Shanghai), Inc., priority 2018, dated 2024).

test system: KM12 cells; test: Cell viability assay (CellTiter-Glo) in KM12 cells; assay type: cell-based; conditions: Homo sapiens, 72 h; Table 4; KM12 cell viability, CellTiter-Glo, 3 days; read-out: IC50

SMILES | IC50
O=C1CCC(N2C(=O)c3ccc(NCC(=O)NC4CN(c5cccc(-c6cnc7ccc(N8CCC[C@@H]8c8cccc(F)c8)nn67)n5)C4)cc3C2=O)C(=O)N1 (stereo partly drawn) [TR-213, 2-((2-(2,6-Dioxopiperidin-3-yl)-1,3-dioxoisoindolin-5-yl)amino)-N-(1-(6-(6-((R)-2-(3-fluorophenyl)pyrrolidin-1-yl)imidazo[1,2-b]pyridazin-3-yl)pyridin-2-yl)azetidin-3-yl)acetamide] | 22.7 nM
COc1ccc(CN(CCN2CCN(c3cccc(-c4cnc5ccc(N6CCC[C@@H]6c6cccc(F)c6)nn45)n3)CC2)c2ccc3c(c2)C(=O)N(C2CCC(=O)NC2=O)C3=O)cc1 (stereo partly drawn) [TR-214, 2-(2,6-Dioxo-3-piperidyl)-5-(2-(4-(6-(6-((2R)-2-(3-fluorophenyl)pyrrolidin-1-yl)imidazo[1,2-b]pyridazin-3-yl)-2-pyridyl)piperazin-1-yl)ethyl-((4-methoxyphenyl)methyl)amino)isoindoline-1,3-dione] | 2.7 nM
O=C1CCC(N2C(=O)c3ccc(NC(=O)C4CCN(c5cccc(-c6cnc7ccc(N8CCC[C@@H]8c8cccc(F)c8)nn67)n5)CC4)cc3C2=O)C(=O)N1 (stereo partly drawn) [TR-215, N-(2-(2,6-Dioxopiperidin-3-yl)-1,3-dioxoisoindolin-5-yl)-1-(6-(6-((R)-2-(3-fluorophenyl)pyrrolidin-1-yl)imidazo[1,2-b]pyridazin-3-yl)pyridin-2-yl)piperidine-4-carboxamide] | > 500 nM
Cn1c(=O)n(C2CCC(=O)NC2=O)c2cccc(NCCN3CCN(c4cccc(-c5cnc6ccc(N7CCC[C@@H]7c7cccc(F)c7)nn56)n4)CC3)c21 (stereo partly drawn) [TR-216, 3-[4-[2-[4-[6-[6-[(2R)-2-(3-Fluorophenyl)pyrrolidin-1-yl]imidazo[1,2-b]pyridazin-3-yl]-2-pyridyl]piperazin-1-yl]ethylamino]-3-methyl-2-oxo-benzimidazol-1-yl]piperidine-2,6-dione] | 3.6 nM
Cn1c(=O)n(C2CCC(=O)NC2=O)c2cccc(NCCCN3CCN(c4cccc(-c5cnc6ccc(N7CCC[C@@H]7c7cccc(F)c7)nn56)n4)CC3)c21 (stereo partly drawn) [TR-217, 3-[4-[3-[4-[6-[6-[(2R)-2-(3-Fluorophenyl)pyrrolidin-1-yl]imidazo[1,2-b]pyridazin-3-yl]-2-pyridyl]piperazin-1-yl]propylamino]-3-methyl-2-oxo-benzimidazol-1-yl]piperidine-2,6-dione] | 4 nM
O=C1CCC(N2Cc3cc(NCC4CCN(c5cccc(-c6cnc7ccc(N8CCC[C@@H]8c8cccc(F)c8)nn67)n5)CC4)ccc3C2=O)C(=O)N1 (stereo partly drawn) [TR-218, 3-(5-(((1-(6-(6-((R)-2-(3-Fluorophenyl)pyrrolidin-1-yl)imidazo[1,2-b]pyridazin-3-yl)pyridin-2-yl)piperidin-4-yl)methyl)amino)-1-oxoisoindolin-2-yl)piperidine-2,6-dione] | 15.3 nM
O=C1CCC(N2Cc3cc(C#CC4CN(c5cccc(-c6cnc7ccc(N8CCC[C@@H]8c8cccc(F)c8)nn67)n5)C4)ccc3C2=O)C(=O)N1 (stereo partly drawn) [TR-219, 3-(5-((1-(6-(6-((R)-2-(3-Fluorophenyl)pyrrolidin-1-yl)imidazo[1,2-b]pyridazin-3-yl)pyridin-2-yl)azetidin-3-yl)ethynyl)-1-oxoisoindolin-2-yl)piperidine-2,6-dione] | 44.9 nM
Cn1c(=O)n(C2CCC(=O)NC2=O)c2ccc(NCCN3CCN(c4cccc(-c5cnc6ccc(N7CCC[C@@H]7c7cccc(F)c7)nn56)n4)CC3)cc21 (stereo partly drawn) [TR-220, 3-(5-((2-(4-(6-(6-((R)-2-(3-Fluorophenyl)pyrrolidin-1-yl)imidazo[1,2-b]pyridazin-3-yl)pyridin-2-yl)piperazin-1-yl)ethyl)amino)-3-methyl-2-oxo-2,3-dihydro-1H-benzo[d]imidazol-1-yl)piperidine-2,6-dione] | 5.5 nM
Cn1c(=O)n(C2CCC(=O)NC2=O)c2ccc(NCCCN3CCN(c4cccc(-c5cnc6ccc(N7CCC[C@@H]7c7cccc(F)c7)nn56)n4)CC3)cc21 (stereo partly drawn) [TR-221, 3-(5-((3-(4-(6-(6-((R)-2-(3-Fluorophenyl)pyrrolidin-1-yl)imidazo[1,2-b]pyridazin-3-yl)pyridin-2-yl)piperazin-1-yl)propyl)amino)-3-methyl-2-oxo-2,3-dihydro-1H-benzo[d]imidazol-1-yl)piperidine-2,6-dione] | 8.5 nM
O=C1CCC(N2C[C@H](c3cccc(C#CCN4CCN(c5cccc(-c6cnc7ccc(N8CCC[C@@H]8c8cccc(F)c8)nn67)n5)CC4)c3)OC2=O)C(=O)N1 (stereo partly drawn) [TR-223, 3-((S)-5-(3-(3-(4-(6-(6-((R)-2-(3-Fluorophenyl)pyrrolidin-1-yl)imidazo[1,2-b]pyridazin-3-yl)pyridin-2-yl)piperazin-1-yl)prop-1-yn-1-yl)phenyl)-2-oxooxazolidin-3-yl)piperidine-2,6-dione] | 11.3 nM
O=C1CCC(N2C[C@H](c3ccc(C#CCN4CCN(c5cccc(-c6cnc7ccc(N8CCC[C@@H]8c8cccc(F)c8)nn67)n5)CC4)cc3)OC2=O)C(=O)N1 (stereo partly drawn) [TR-224, 3-((S)-5-(4-(3-(4-(6-(6-((R)-2-(3-Fluorophenyl)pyrrolidin-1-yl)imidazo[1,2-b]pyridazin-3-yl)pyridin-2-yl)piperazin-1-yl)prop-1-yn-1-yl)phenyl)-2-oxooxazolidin-3-yl)piperidine-2,6-dione] | 9.9 nM
O=C1CCC(N2C(=O)c3ccc(N4CCC(CN5CCN(c6cccc(-c7cnc8ccc(N9CCC[C@@H]9c9cccc(F)c9)nn78)n6)CC5)C4)cc3C2=O)C(=O)N1 (stereo partly drawn) [TR-225, 2-(2,6-Dioxopiperidin-3-yl)-5-(3-((4-(6-(6-((R)-2-(3-fluorophenyl)pyrrolidin-1-yl)imidazo[1,2-b]pyridazin-3-yl)pyridin-2-yl)piperazin-1-yl)methyl)pyrrolidin-1-yl)isoindoline-1,3-dione] | 8.8 nM
O=C1CCC(N2C(=O)c3ccc(N4CCC(CN5CCN(c6cccc(-c7cnc8ccc(N9CCC[C@@H]9c9cccc(F)c9)nn78)n6)CC5)CC4)cc3C2=O)C(=O)N1 (stereo partly drawn) [TR-226, 2-(2,6-Dioxopiperidin-3-yl)-5-(4-((4-(6-(6-((R)-2-(3-fluorophenyl)pyrrolidin-1-yl)imidazo[1,2-b]pyridazin-3-yl)pyridin-2-yl)piperazin-1-yl)methyl)piperidin-1-yl)isoindoline-1,3-dione] | 13.8 nM
O=C1CCC(n2c(=O)n(CCN3CCN(c4cccc(-c5cnc6ccc(N7CCC[C@@H]7c7cccc(F)c7)nn56)n4)CC3)c3ccccc32)C(=O)N1 (stereo partly drawn) [TR-227, 3-(3-(2-(4-(6-(6-((R)-2-(3-Fluorophenyl)pyrrolidin-1-yl)imidazo[1,2-b]pyridazin-3-yl)pyridin-2-yl)piperazin-1-yl)ethyl)-2-oxo-2,3-dihydro-1H-benzo[d]imidazol-1-yl)piperidine-2,6-dione] | 23.6 nM
O=C1CCC(n2c(=O)n(CCCN3CCN(c4cccc(-c5cnc6ccc(N7CCC[C@@H]7c7cccc(F)c7)nn56)n4)CC3)c3ccccc32)C(=O)N1 (stereo partly drawn) [TR-228, 3-(3-(3-(4-(6-(6-((R)-2-(3-Fluorophenyl)pyrrolidin-1-yl)imidazo[1,2-b]pyridazin-3-yl)pyridin-2-yl)piperazin-1-yl)propyl)-2-oxo-2,3-dihydro-1H-benzo[d]imidazol-1-yl)piperidine-2,6-dione] | 56.3 nM
